Molecular target: T1, USP28 (USP28-5(1-1077)-TEV-6*His; LifeSensors) (Homo sapiens, UniProt Q96RU2)
T1 construct: construct USP28 (USP28-5(1-1077)-TEV-6*His; LifeSensors); TEV cleavage site (C); 6xHis (C); purchased LifeSensors
T1 sequence (Q96RU2 1-1077): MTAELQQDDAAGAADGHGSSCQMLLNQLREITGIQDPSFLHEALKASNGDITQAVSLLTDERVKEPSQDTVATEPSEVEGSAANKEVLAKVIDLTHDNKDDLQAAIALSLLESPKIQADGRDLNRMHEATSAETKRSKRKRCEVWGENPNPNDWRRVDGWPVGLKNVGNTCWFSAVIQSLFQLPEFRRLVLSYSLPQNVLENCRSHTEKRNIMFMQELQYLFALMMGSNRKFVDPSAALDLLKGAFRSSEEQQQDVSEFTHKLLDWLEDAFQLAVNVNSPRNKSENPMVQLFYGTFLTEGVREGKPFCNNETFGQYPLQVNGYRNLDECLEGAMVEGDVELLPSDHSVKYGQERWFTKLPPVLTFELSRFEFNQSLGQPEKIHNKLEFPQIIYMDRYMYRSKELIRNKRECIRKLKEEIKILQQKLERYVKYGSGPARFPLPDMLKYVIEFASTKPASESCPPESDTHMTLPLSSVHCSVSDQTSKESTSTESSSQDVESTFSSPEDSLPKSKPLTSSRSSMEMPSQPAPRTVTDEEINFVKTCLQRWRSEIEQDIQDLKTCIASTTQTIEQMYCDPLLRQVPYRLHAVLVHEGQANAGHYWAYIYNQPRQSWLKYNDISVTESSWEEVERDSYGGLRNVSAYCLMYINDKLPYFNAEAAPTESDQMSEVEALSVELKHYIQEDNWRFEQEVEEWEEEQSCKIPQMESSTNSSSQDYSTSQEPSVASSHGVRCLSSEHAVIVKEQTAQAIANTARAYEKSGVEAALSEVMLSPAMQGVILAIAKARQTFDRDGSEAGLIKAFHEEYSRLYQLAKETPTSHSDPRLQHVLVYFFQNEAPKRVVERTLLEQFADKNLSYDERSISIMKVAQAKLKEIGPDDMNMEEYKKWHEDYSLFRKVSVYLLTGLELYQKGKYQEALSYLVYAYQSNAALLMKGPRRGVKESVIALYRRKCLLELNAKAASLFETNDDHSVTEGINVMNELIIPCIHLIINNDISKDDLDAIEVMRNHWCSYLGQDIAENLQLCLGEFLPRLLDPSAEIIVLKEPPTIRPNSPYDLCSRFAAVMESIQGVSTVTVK
Assay: Ubiquitin-Rhodamine 110 Assay for USP28 Activity, Example A-1(b)
Format: biochemical
Settings: Ubiquitin-Rhodamine 110 assay, Example A-1(b)
Method: Example A-1(b): Biochemical Assay: Ubiquitin-Rhodamine 110 Assay for USP28 Activity
Each assay was performed in a final volume of 20 μL in assay buffer containing 20 mM Tris-HCl (pH 8.0, (1M Tris-HCl, pH 8.0 solution; Corning 46-031-CM)), 2 mM CaCl2) (1M Calcium Chloride solution; Sigma #21114) 2 mM BME (2-Mercaptoethanol; Sigma 63689-25ML-F), 0.01% Prionex ([…] filtered, Sigma #G-0411), and 0.01% Triton X-100. Stock compound solutions were stored at −20° C. as 10 mM in DMSO. Up to 1 month prior to the assay, 2 mM test compounds were pre-dispensed into assay plates (Black, low volume; Corning #3820) and frozen at −20° C. Prestamped assay plates were allowed to come to room temperature on the day of the assay. For the screen, 100 nL of 2 mM was pre-dispensed for a final screening concentration of 10 μM (DMSO(fc)=0.5%). […] Plates were incubated stacked for 90 minutes at room temperature before fluorescence was read on the Envision (Excitation at 485 nm and Emission at 535 nm; Perkin Elmer) or on the PheraSTAR (Excitation at 485 nm and Emission at 535 nm; BMG Labtech).
For follow-up studies, each assay was performed in a final volume of 15 μL in assay buffer containing 20 mM Tris-HCl (pH 8.0, (1M Tris-HCl, pH 8.0 solution; Corning 46-031-CM)), 3 mM BME (2-Mercaptoethanol; Sigma 63689-25ML-F), 0.03% BGG (0.22 μM filtered, Sigma, G7516-25G), and 0.01% Triton X-100 (Sigma, T9284-10L). Nanoliter quantities of either an 8-point or 10-point, 3-fold serial dilution in DMSO was pre-dispensed into assay plates (Perkin Elmer, ProxiPlate-384 F Plus, #) for a final test concentration of either 25 μM to 11 nM or 25 μM to 1.3 nM, respectively. Enzyme USP28, construct USP28 (USP28-5(1-1077)-TEV-6*His; LifeSensors) concentration and incubation times were optimized for the maximal signal-to-background while maintaining initial velocity conditions at a fixed substrate concentration. The final concentration of the enzyme in the assay was 75 pM. Final substrate (Ub-Rh110; Ubiquitin-Rhodamine 110, R&D Systems #U-555) concentration was 25 nM with [Ub-Rh110]<<Km. 5 μL of 2× enzyme was added to assay plates (pre-stamped with compound) preincubated with USP28 for 30 minutes and then 5 μL of 2×Ub-Rh110 was added to assay plates. Plates were incubated stacked for 20 minutes at room temperature before 5 μL of stop solution was added (final concentration of 10 mM citric acid (Sigma, 251275-500G)). Fluorescence was read on the Envision (Excitation at 485 nm and Emission at 535 nm; Perkin Elmer) or on the PheraSTAR (Excitation at 485 nm and Emission at 535 nm; BMG Labtech).
For assay formats Example A-1(a), A-1(b), and A-2, data were reported as percent inhibition compared with control wells based on the following equation: % inh=1−((FLU−AveLow)/(AveHigh−AveLow)) where FLU=measured Fluorescence, AveLow=average Fluorescence of no enzyme control (n=16), and AveHigh=average Fluorescence of DMSO control (n=16). IC50 values were determined by curve fitting of the standard 4 parameter logistic fitting algorithm included in the Activity Base software package: IDBS XE Designer Model 205. Data is fitted using the Levenburg Marquardt algorithm.

`Cc1cnc2c(N)c(C(=O)N[C@H]3CCc4cc(N5CCNCC(F)(F)C5)ccc4C3)sc2n1` [Example 454, (S)-7-amino-N-(6-(6,6-difluoro-1,4-diazepan-1-yl)-1,2,3,4-tetrahydronaphthalen-2-yl)-3-methylthieno[2,3-b]pyrazine-6-carboxamide] was tested, and the “USP28 A-1(b) IC50 range” value was “+++ (0.05-0.2 μM)”.

— patent US11524966B1 (Valo Early Discovery, Inc., priority 2017, dated 2022)
